Data reported in US20120295920A1, “5-AMINO-4-HYDROXYPENTOYL AMIDES” (priority 2009, published 2012).
Read-outs that look alike come from different tables or passages of the source.

Legend:
[1] = tested on: HIV-1 wild-type strain; test: General antiviral assay, cell-based virus replication in MT4-LTR-EGFP cells, wild-type strain; details: Human immunodeficiency virus 1; wild-type strain IIIB, MT4-LTR-EGFP cells
Summary of the method: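 HIV LTR-driven EGFP reporter MT4 cells (150,000 cells/ml) infected at MOI 0.0025 with or without inhibitor at various concentrations. Read-out either GFP fluorescence on day 3 post-infection or resazurin cell viability on day 4.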

[2] = tested on: HIV-1 Strain A (M046I, I084V); test: microbe, parasite or virus in culture; type: cell-based; details: Human immunodeficiency virus 1, read-out: A EC50
Summary of the method: (§1)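 MT4 cells stably carrying an HIV LTR-driven EGFP reporter (150,000 cells/ml) were infected at MOI 0.0025 with or without inhibitor dilutions. Replication was read either as GFP fluorescence on day 3 post-infection or as cell viability by resazurin on day 4.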

[3] = tested on: HIV-1 Strain B (M046I, I050V); test: microbe, parasite or virus in culture; type: cell-based; details: Human immunodeficiency virus 1, read-out: B EC50
Summary of the method: as §1

[4] = tested on: HIV-1 Strain C (G048G/V, V082A); test: microbe, parasite or virus in culture; type: cell-based; details: Human immunodeficiency virus 1, read-out: C EC50
Summary of the method: as §1

[5] = General toxicity assay on mock-infected MT4 cells with CMV-EGFP reporter (CC50); type: cell-based; details: human
[6] = tested on: HIV-1 IIIB; test: 50% HS-Rezazurin: antiviral assay in the presence of 50% human serum, MT-4 cells, resazurin cell viability; type: cell-based; details: Human immunodeficiency virus 1, IIIB, MT4, 96 h
Summary of the method: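 MT-4 cells infected with HIV-1 IIIB (MOI 0.001 to 0.01 CCID50/cell) for 1 h, washed, then plated onto serial compound dilutions in 50% human serum (10% FCS alternative). After 4 days, EC50 derived from resazurin cell viability.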

[7] = MT4LTR cells, read-out: TOX-MT4LTR (CC50)
[8] = mock-infected MT4 cells with CMV-EGFP reporter, read-out: TOX-MT4CMV (CC50)

Structure (SMILES)	EC50 [1]	EC50 [2]	EC50 [3]	EC50 [4]	CC50 [5, 7]	CC50 [5, 8]	EC50 [6]	melting point
COC(=O)N[C@H](C(=O)N[C@@H](Cc1ccc(-c2ccc(OC)nc2)cc1)[C@@H](O)C[C@@H](Cc1ccccc1F)C(=O)N[C@H]1c2ccsc2CC[C@H]1O)C(C)(C)C [Compound 93]	1.3 nM	0.8 nM	0.6 nM	0.4 nM	> 32000 nM	> 32000 nM	3.5 nM	–
COC(=O)N[C@H](C(=O)N[C@@H](Cc1ccc(-c2cnc(C(C)C)s2)cc1)[C@@H](O)C[C@@H](Cc1ccccc1F)C(=O)N[C@H]1c2ccccc2OC[C@H]1O)C(C)(C)C [Compound 38]	7.1 nM	4.4 nM	3.6 nM	2.6 nM	–	10000 nM	37.9 nM	–
CNC(=O)[C@@H](NC(=O)[C@H](Cc1ccccc1F)C[C@H](O)[C@H](Cc1ccc(-c2ccc(N(C)C)nc2)cc1)NC(=O)[C@@H](NC(=O)OC)C(C)(C)C)C(C)(C)C [Compound 90]	4.7 nM	4.8 nM	2.6 nM	2.8 nM	–	> 32000 nM	13.6 nM	–
CN(C)c1ccc(-c2ccc(C[C@H](NC(=O)O[C@H]3CO[C@H]4OCC[C@H]43)[C@@H](O)C[C@@H](Cc3ccccc3F)C(=O)N[C@H]3c4cc(Cl)ccc4OC[C@H]3O)cc2)cn1 [Compound 79]	1.7 nM	1.1 nM	1 nM	0.7 nM	> 32000 nM	–	12.8 nM	–
COC(=O)N[C@H](C(=O)N[C@@H](Cc1ccc(-c2ccc(N(C)C)nc2)cc1)[C@@H](O)C[C@@H](Cc1ccccc1F)C(=O)N[C@H]1c2cc(F)cc(Cl)c2OC[C@H]1O)C(C)(C)C [Compound 52]	1.8 nM	1.2 nM	0.9 nM	0.7 nM	> 32000 nM	–	6.2 nM	255.44 °C
CN(C)c1ccc(-c2ccc(C[C@H](NC(=O)[C@@H](NC(=O)C3(C#N)CC3)C(C)(C)C)[C@@H](O)C[C@@H](Cc3ccccc3F)C(=O)N[C@H]3c4cc(F)ccc4OC[C@H]3O)cc2)cn1 [Compound 53]	2.3 nM	4.1 nM	2 nM	2 nM	> 32000 nM	–	9.5 nM	–
COC(=O)N[C@H](C(=O)N[C@@H](Cc1ccc(-c2cnc(C(C)C)s2)cc1)[C@@H](O)C[C@@H](Cc1ccccc1F)C(=O)N[C@H]1c2cc(Cl)ccc2OC[C@H]1O)C(C)(C)C [Compound 32]	5.9 nM	5 nM	3.7 nM	3.1 nM	–	2200 nM	28.6 nM	–
COC(=O)N[C@H](C(=O)N[C@@H](Cc1ccc(-c2ccc(OC)nc2)cc1)[C@@H](O)C[C@@H](Cc1cccc(OC(F)(F)F)c1)C(=O)N[C@H]1c2cc(F)ccc2OC[C@H]1O)C(C)(C)C [Compound 64]	2.6 nM	3 nM	1.6 nM	1.3 nM	> 32000 nM	–	15.1 nM	–
COC(=O)N[C@H](C(=O)N[C@@H](Cc1ccc(-c2ccc(OC)nc2)cc1)[C@@H](O)C[C@@H](Cc1ccccc1F)C(=O)N[C@H]1[C@H](C)CCC[C@H]1O)C(C)(C)C [Compound 96]	0.9 nM	0.7 nM	0.4 nM	0.5 nM	> 32000 nM	–	2 nM	–
